How the values were obtained:
Format in all cases: cell-based, Staphylococcus carnosus
S. carnosus TM300 [1] = test: Killing kinetics (CFU counting); conditions: S. carnosus TM300, mid-log, 1x and 4x MIC, 30-180 min, triplicate
Experimental: S. carnosus TM300 and B. subtilis BSF2470 (1A980) cell cultures were grown to mid-log phase in BHI and LB broth, respectively. […] At each time point, an aliquot of […] treated-culture was serial-diluted and placed on BHI agar plates for S. carnosus and LB agar plates for B. subtilis. The plates were grown for 1 day at 37°C and the colonies were counted. Each experiment was performed in triplicate and untreated cell culture was used as the negative control.

S. carnosus TM300 [2] = test: Bright field (Airyscan) microscopy; conditions: S. carnosus TM300, 0.5 MIC
S. carnosus TM300 [3] = test: Lipid protection assay (MIC with lipid-supplemented growth medium); conditions: for Epilancin MIC: S. carnosus TM300
Experimental: MIC determination was performed in a 96-well microtiter plate as described previously ([Wu et al., 2019]). Sensitive bacterial culture was grown in the appropriate medium (BHI for S. carnosus; LB for B. subtilis) at 37°C overnight. The culture was diluted to 10^5 CFU/mL in medium in each well. Epilancin 15X or its analog was dissolved in water and serially diluted to obtain final concentrations of 20, 10, 5, 2.5, 1.25, 0.625, 0.3125, 0.156, 0.078, 0.039, 0.019, and 0.009 μM. OD600 readings were obtained after 18 h using a Synergy H4 Hybrid Multi-Mode Microplate Reader (BioTeK). Cell-free untreated medium, and untreated cell culture were used as negative controls. The MIC of nisin against B. subtilis BSF2470 was determined following the same methods.
The possibility of direct interaction between epilancin 15X and specific lipids was examined through lipid protection assays. […] In an agar diffusion assay, purified S. aureus LTA antagonized the bioactivity of epilancin 15X but not nisin A (Supplementary Figure S5A).

S. carnosus TM300 [4] = test: Membrane permeability study with propidium iodide (flow cytometry); conditions: S. carnosus TM300, 20 min exposure, 0.5x, 1x, 4x MIC, n = 3
Experimental: Cultures of S. carnosus TM300 and B. subtilis BSF2470 were grown to OD600 1.0 and diluted to OD600 0.1 in fresh BHI or LB medium, respectively. The culture was then combined with a final concentration of 25 μM PI (ThermoFisher P3566), 1 mM HEPES, and 1 mM glucose. […] Another two tubes were prepared without antibiotic treatment as controls. The culture was analyzed with a BD Biosciences LSR II flow cytometer for S. carnosus and a BD Biosciences LSRFortessa for B. subtilis using excitation at 488 nm with an argon laser and measurement of emission through a band-pass filter at 695/40 nm. A minimum of 30,000 events were detected for each sample. The experiment was repeated three times, and the mean PI uptake value was determined. The results were calibrated such that the mean PI uptake from the 4x MIC nisin-treated cell culture was set as 100% PI uptake.

[5] = B. subtilis LTA (-) added, ~100 µM
[6] = S. aureus LTA (-) added, ~100 µM

Epilancin 15X
number of colony forming units (CFU) (S. carnosus TM300 [1]): significant decrease | aggregation phenotype of cells (brightfield) (S. carnosus TM300 [2]): Aggregation and chaining of cells was observed | Increase in MIC compared to WT (S. carnosus TM300 [3]; [5]): 8 X | Increase in MIC compared to WT (S. carnosus TM300 [3]; Cardiolipin (-) added, 130 µM): 8 X | Increase in MIC compared to WT (S. carnosus TM300 [3]; DGDG added, 100 µM): did not display any protection affect | Increase in MIC compared to WT (S. carnosus TM300 [3]; POPC added, 130 µM): did not display any protection affect | Increase in MIC compared to WT (S. carnosus TM300 [3]; POPE added, 500 µM): did not display any protection affect | Increase in MIC compared to WT (S. carnosus TM300 [3]; POPG (-) added, 100 µM): 4 X | Increase in MIC compared to WT (S. carnosus TM300 [3]; [6]): > 16 X | Epilancin MIC (S. carnosus TM300 [3]; [5]): 2.5 µM | Epilancin MIC (S. carnosus TM300 [3]; Cardiolipin (-) added, 130 µM): 2.5 µM | Epilancin MIC (S. carnosus TM300 [3]; DGDG added, 100 µM): 0.31 µM | Epilancin MIC (S. carnosus TM300 [3]; POPC added, 130 µM): 0.31 µM | Epilancin MIC (S. carnosus TM300 [3]; POPE added, 500 µM): 0.31 µM | Epilancin MIC (S. carnosus TM300 [3]; POPG (-) added, final concentration 100 µM): 1.25 µM | Epilancin MIC (S. carnosus TM300 [3]; [6]): > 5 µM | increase of epilancin 15X MIC (S. carnosus TM300 [3]; growth medium supplemented with 2.5 μM LTA isolated from S. aureus): at least 8 fold | increase of epilancin 15X MIC (S. carnosus TM300 [3]; growth medium supplemented with POPG): at least 4 fold | increase of epilancin 15X MIC (S. carnosus TM300 [3]; growth medium supplemented with cardiolipin): at least 4 fold | PI uptake (membrane disruption) (S. carnosus TM300 [4]): increase

— article PMC10652874, “Investigation into the mechanism of action of the antimicrobial peptide epilancin 15X” (Frontiers in Microbiology, 2023)
